Measurements: ChEMBL document CHEMBL4002566, “S-substituted 3,5-dinitrophenyl 1,3,4-oxadiazole-2-thiols and tetrazole-5-thiols as highly efficient antitubercular agents” (Eur J Med Chem, 2017)
Values after ≈ are worked out from the molar mass of the structure shown.

Legend:
Assay type in all cases: functional
[1] = system: Mycobacterium tuberculosis; test: Antimycobacterial activity against multidrug-resistant Mycobacterium tuberculosis 234/2005 after 14 days by micromethod
[2] = system: Mycobacterium tuberculosis; test: Antimycobacterial activity against multidrug-resistant Mycobacterium tuberculosis Praha 4 after 14 days by micromethod
[3] = system: Mycobacterium tuberculosis; test: Antimycobacterial activity against multidrug-resistant Mycobacterium tuberculosis 7357/1998 after 14 days by micromethod
[4] = system: Mycobacterium tuberculosis; test: Antimycobacterial activity against multidrug-resistant Mycobacterium tuberculosis Praha 131 after 14 days by micromethod
[5] = system: Mycobacterium tuberculosis; test: Antimycobacterial activity against multidrug-resistant Mycobacterium tuberculosis Praha 1 after 14 days by micromethod
[6] = system: Mycobacterium tuberculosis; test: Antimycobacterial activity against multidrug-resistant Mycobacterium tuberculosis 8666/2010 after 14 days by micromethod
[7] = system: Mycobacterium tuberculosis; test: Antimycobacterial activity against multidrug-resistant Mycobacterium tuberculosis 9449/2007 after 14 days by micromethod
[8] = system: Mycobacterium tuberculosis; test: Antimycobacterial activity against multidrug-resistant Mycobacterium tuberculosis Praha 1 after 21 days by micromethod; conditions: Praha 1, 504 h
[9] = system: Mycobacterium tuberculosis; test: Antimycobacterial activity against multidrug-resistant Mycobacterium tuberculosis 7357/1998 after 21 days by micromethod; conditions: 7357/1998, 504 h
[10] = system: Mycobacterium tuberculosis; test: Antimycobacterial activity against multidrug-resistant Mycobacterium tuberculosis Praha 131 after 21 days by micromethod; conditions: Praha 131, 504 h
[11] = system: Mycobacterium tuberculosis; test: Antimycobacterial activity against multidrug-resistant Mycobacterium tuberculosis 234/2005 after 21 days by micromethod; conditions: 234/2005, 504 h
[12] = system: Mycobacterium tuberculosis; test: Antimycobacterial activity against multidrug-resistant Mycobacterium tuberculosis Praha 4 after 21 days by micromethod; conditions: Praha 4, 504 h
[13] = system: Mycobacterium tuberculosis; test: Antimycobacterial activity against multidrug-resistant Mycobacterium tuberculosis 9449/2007 after 21 days by micromethod; conditions: 9449/2007, 504 h
[14] = system: Mycobacterium tuberculosis; test: Antimycobacterial activity against multidrug-resistant Mycobacterium tuberculosis 8666/2010 after 21 days by micromethod; conditions: 8666/2010, 504 h

Row | Compound | MIC ([1]; 234/2005, 336 h) [µM] | MIC ([2]; Praha 4, 336 h) [µM] | MIC ([3]; 7357/1998, 336 h) [µM] | MIC ([4]; Praha 131, 336 h) [µM] | MIC ([5]; Praha 1, 336 h) [µM] | MIC ([6]; 8666/2010, 336 h) [µM] | MIC ([7]; 9449/2007, 336 h) [µM] | MIC [8] [µM] | MIC [9] [µM] | MIC [10] [µM] | MIC [11] [µM] | MIC [12] [µM] | MIC [13] [µM] | MIC [14] [µM] | also measured
1 | CC[C@@H](CO)NCCN[C@@H](CC)CO [ETHAMBUTOL] | 16 (≈ 3.27 µg/mL) | 16 (≈ 3.27 µg/mL) | 16 (≈ 3.27 µg/mL) | 32 (≈ 6.54 µg/mL) | 32 (≈ 6.54 µg/mL) | 16 (≈ 3.27 µg/mL) | 8 (≈ 1.63 µg/mL) |  |  |  |  |  |  |  | 
2 | COc1ccc(CSc2nnc(-c3cc([N+](=O)[O-])cc([N+](=O)[O-])c3)o2)cc1 | 0.03 (≈ 0.0117 µg/mL) | 0.03 (≈ 0.0117 µg/mL) | 0.03 (≈ 0.0117 µg/mL) | 0.03 (≈ 0.0117 µg/mL) | 0.03 (≈ 0.0117 µg/mL) | 0.03 (≈ 0.0117 µg/mL) | 0.03 (≈ 0.0117 µg/mL) | 0.06 (≈ 0.0233 µg/mL) | 0.06 (≈ 0.0233 µg/mL) | 0.06 (≈ 0.0233 µg/mL) | 0.06 (≈ 0.0233 µg/mL) | 0.06 (≈ 0.0233 µg/mL) | 0.06 (≈ 0.0233 µg/mL) | 0.06 (≈ 0.0233 µg/mL) | 
3 | O=[N+]([O-])c1cc(-c2nnc(SCc3ccc(Cl)cc3)o2)cc([N+](=O)[O-])c1 | 0.03 (≈ 0.0118 µg/mL) | 0.03 (≈ 0.0118 µg/mL) | 0.03 (≈ 0.0118 µg/mL) | 0.03 (≈ 0.0118 µg/mL) | 0.03 (≈ 0.0118 µg/mL) | 0.03 (≈ 0.0118 µg/mL) | 0.03 (≈ 0.0118 µg/mL) | 0.06 (≈ 0.0236 µg/mL) | 0.06 (≈ 0.0236 µg/mL) | 0.06 (≈ 0.0236 µg/mL) | 0.06 (≈ 0.0236 µg/mL) | 0.06 (≈ 0.0236 µg/mL) | 0.06 (≈ 0.0236 µg/mL) | 0.06 (≈ 0.0236 µg/mL) | 
4 | O=[N+]([O-])c1cc(-c2nnc(SCc3ccc(Br)cc3)o2)cc([N+](=O)[O-])c1 | 0.03 (≈ 0.0131 µg/mL) | 0.03 (≈ 0.0131 µg/mL) | 0.03 (≈ 0.0131 µg/mL) | 0.03 (≈ 0.0131 µg/mL) | 0.03 (≈ 0.0131 µg/mL) | 0.03 (≈ 0.0131 µg/mL) | 0.03 (≈ 0.0131 µg/mL) | 0.06 (≈ 0.0262 µg/mL) | 0.06 (≈ 0.0262 µg/mL) | 0.06 (≈ 0.0262 µg/mL) | 0.06 (≈ 0.0262 µg/mL) | 0.06 (≈ 0.0262 µg/mL) | 0.06 (≈ 0.0262 µg/mL) | 0.06 (≈ 0.0262 µg/mL) | 
5 | O=[N+]([O-])c1cc(-c2nnc(SCc3ccc(Cl)c(Cl)c3)o2)cc([N+](=O)[O-])c1 | 0.03 (≈ 0.0128 µg/mL) | 0.03 (≈ 0.0128 µg/mL) | 0.03 (≈ 0.0128 µg/mL) | 0.03 (≈ 0.0128 µg/mL) | 0.03 (≈ 0.0128 µg/mL) | 0.03 (≈ 0.0128 µg/mL) | 0.03 (≈ 0.0128 µg/mL) | 0.03 (≈ 0.0128 µg/mL) | 0.03 (≈ 0.0128 µg/mL) | 0.03 (≈ 0.0128 µg/mL) | 0.03 (≈ 0.0128 µg/mL) | 0.03 (≈ 0.0128 µg/mL) | 0.03 (≈ 0.0128 µg/mL) | 0.03 (≈ 0.0128 µg/mL) | 
6 | O=[N+]([O-])c1cc(-n2nnnc2SCc2ccc(Cl)cc2)cc([N+](=O)[O-])c1 | 0.5 (≈ 0.196 µg/mL) | 0.5 (≈ 0.196 µg/mL) | 0.5 (≈ 0.196 µg/mL) | 0.5 (≈ 0.196 µg/mL) | 0.5 (≈ 0.196 µg/mL) | 0.5 (≈ 0.196 µg/mL) | 0.5 (≈ 0.196 µg/mL) | 0.5 (≈ 0.196 µg/mL) | 0.5 (≈ 0.196 µg/mL) | 0.5 (≈ 0.196 µg/mL) | 0.5 (≈ 0.196 µg/mL) | 0.5 (≈ 0.196 µg/mL) | 0.5 (≈ 0.196 µg/mL) | 0.5 (≈ 0.196 µg/mL) | 
7 | O=[N+]([O-])c1cc(-c2nnc(SCc3ccc(Cl)c(Cl)c3)o2)cc(C(F)(F)F)c1 | 0.5 (≈ 0.225 µg/mL) | 0.25 (≈ 0.113 µg/mL) | 0.5 (≈ 0.225 µg/mL) | 0.5 (≈ 0.225 µg/mL) | 0.5 (≈ 0.225 µg/mL) | 0.5 (≈ 0.225 µg/mL) | 0.5 (≈ 0.225 µg/mL) | 0.5 (≈ 0.225 µg/mL) | 0.5 (≈ 0.225 µg/mL) | 0.5 (≈ 0.225 µg/mL) | 0.5 (≈ 0.225 µg/mL) | 0.5 (≈ 0.225 µg/mL) | 0.5 (≈ 0.225 µg/mL) | 0.5 (≈ 0.225 µg/mL) | 
8 | O=[N+]([O-])c1cc(-c2nnc(SCc3ccccc3)o2)cc(C(F)(F)F)c1 | 1 (≈ 0.381 µg/mL) | 1 (≈ 0.381 µg/mL) | 1 (≈ 0.381 µg/mL) | 1 (≈ 0.381 µg/mL) | 1 (≈ 0.381 µg/mL) | 1 (≈ 0.381 µg/mL) | 2 (≈ 0.763 µg/mL) | 1 (≈ 0.381 µg/mL) | 2 (≈ 0.763 µg/mL) | 2 (≈ 0.763 µg/mL) | 1 (≈ 0.381 µg/mL) | 1 (≈ 0.381 µg/mL) | 2 (≈ 0.763 µg/mL) | 2 (≈ 0.763 µg/mL) | 
9 | CC(C)/N=c1\cc2n(-c3ccc(Cl)cc3)c3ccccc3nc-2cc1Nc1ccc(Cl)cc1 [CLOFAZIMINE] | 0.125 (≈ 0.0592 µg/mL) | 0.5 (≈ 0.237 µg/mL) | 0.125 (≈ 0.0592 µg/mL) | 0.25 (≈ 0.118 µg/mL) | 0.5 (≈ 0.237 µg/mL) | 2 (≈ 0.947 µg/mL) | 0.125 (≈ 0.0592 µg/mL) |  |  |  |  |  |  |  | 
10 | CC1COc2c(N3CCN(C)CC3)c(F)cc3c(=O)c(C(=O)O)cn1c23 (stereo unspecified) [OFLOXACIN] | 0.5 (≈ 0.181 µg/mL) | > 16 | 8 (≈ 2.89 µg/mL) | 16 (≈ 5.78 µg/mL) | 1 (≈ 0.361 µg/mL) | 8 (≈ 2.89 µg/mL) | 2 (≈ 0.723 µg/mL) |  |  |  |  |  |  |  | 
11 | NCC[C@H](O)C(=O)N[C@@H]1C[C@H](N)[C@@H](O[C@H]2O[C@H](CN)[C@@H](O)[C@H](O)[C@H]2O)[C@H](O)[C@H]1O[C@H]1O[C@H](CO)[C@@H](O)[C@H](N)[C@H]1O [AMIKACIN] | 0.5 (≈ 0.293 µg/mL) | 1 (≈ 0.586 µg/mL) | 1 (≈ 0.586 µg/mL) | > 32 | 0.5 (≈ 0.293 µg/mL) | 2 (≈ 1.17 µg/mL) | 0.5 (≈ 0.293 µg/mL) |  |  |  |  |  |  |  | 
12 | GENTAMICIN |  |  |  |  |  |  |  |  |  |  |  |  |  |  | MIC [1]: 0.25 µM; MIC [2]: 0.5 µM; MIC [3]: 1 µM; MIC [4]: > 8 µM; MIC [5]: 1 µM; MIC [6]: 2 µM; MIC [7]: 1 µM
13 | CN[C@@H]1[C@H](O[C@H]2[C@H](O[C@H]3[C@H](O)[C@@H](O)[C@H](N=C(N)N)[C@@H](O)[C@@H]3N=C(N)N)O[C@@H](C)[C@]2(O)C=O)O[C@@H](CO)[C@H](O)[C@H]1O [STREPTOMYCIN] | 32 (≈ 18.6 µg/mL) | > 32 | > 32 | > 32 | 16 (≈ 9.31 µg/mL) | > 32 | > 32 |  |  |  |  |  |  |  | 
14 | NNC(=O)c1ccncc1 [ISONIAZID] | 16 (≈ 2.19 µg/mL) | 16 (≈ 2.19 µg/mL) | 16 (≈ 2.19 µg/mL) | 16 (≈ 2.19 µg/mL) | 16 (≈ 2.19 µg/mL) | 32 (≈ 4.39 µg/mL) | 64 (≈ 8.78 µg/mL) |  |  |  |  |  |  |  | 
15 | O=[N+]([O-])c1cc(-c2nnc(SCc3ccccc3Cl)o2)cc([N+](=O)[O-])c1 | 0.06 (≈ 0.0236 µg/mL) | 0.03 (≈ 0.0118 µg/mL) | 0.06 (≈ 0.0236 µg/mL) | 0.06 (≈ 0.0236 µg/mL) | 0.06 (≈ 0.0236 µg/mL) | 0.06 (≈ 0.0236 µg/mL) | 0.06 (≈ 0.0236 µg/mL) | 0.125 (≈ 0.0491 µg/mL) | 0.125 (≈ 0.0491 µg/mL) | 0.125 (≈ 0.0491 µg/mL) | 0.125 (≈ 0.0491 µg/mL) | 0.06 (≈ 0.0236 µg/mL) | 0.125 (≈ 0.0491 µg/mL) | 0.125 (≈ 0.0491 µg/mL) | 
16 | CO[C@H]1/C=C/O[C@@]2(C)Oc3c(C)c(O)c4c(O)c(c(/C=N/N5CCN(C)CC5)c(O)c4c3C2=O)NC(=O)/C(C)=C\C=C\[C@H](C)[C@H](O)[C@@H](C)[C@@H](O)[C@@H](C)[C@H](OC(C)=O)[C@@H]1C [RIFAMPIN] | > 8 | > 8 | > 8 | > 8 | > 8 | > 8 | > 8 |  |  |  |  |  |  |  | 
17 | O=[N+]([O-])c1cc(-c2nnc(SCc3cccc(Cl)c3)o2)cc([N+](=O)[O-])c1 | 0.03 (≈ 0.0118 µg/mL) | 0.03 (≈ 0.0118 µg/mL) | 0.03 (≈ 0.0118 µg/mL) | 0.03 (≈ 0.0118 µg/mL) | 0.03 (≈ 0.0118 µg/mL) | 0.03 (≈ 0.0118 µg/mL) | 0.03 (≈ 0.0118 µg/mL) | 0.06 (≈ 0.0236 µg/mL) | 0.06 (≈ 0.0236 µg/mL) | 0.06 (≈ 0.0236 µg/mL) | 0.06 (≈ 0.0236 µg/mL) | 0.06 (≈ 0.0236 µg/mL) | 0.06 (≈ 0.0236 µg/mL) | 0.06 (≈ 0.0236 µg/mL) | 
18 | O=[N+]([O-])c1cc(-n2nnnc2SCc2ccc(Cl)c(Cl)c2)cc([N+](=O)[O-])c1 | 0.25 (≈ 0.107 µg/mL) | 0.25 (≈ 0.107 µg/mL) | 0.25 (≈ 0.107 µg/mL) | 0.25 (≈ 0.107 µg/mL) | 0.25 (≈ 0.107 µg/mL) | 0.25 (≈ 0.107 µg/mL) | 0.25 (≈ 0.107 µg/mL) | 0.5 (≈ 0.214 µg/mL) | 0.5 (≈ 0.214 µg/mL) | 0.5 (≈ 0.214 µg/mL) | 0.25 (≈ 0.107 µg/mL) | 0.25 (≈ 0.107 µg/mL) | 0.25 (≈ 0.107 µg/mL) | 0.25 (≈ 0.107 µg/mL) | 
